The assay concerns the target bovine cardiac myofibrils (full-length cardiac myosin ATPase in the native sarcomere) (Bos taurus (Bovine), UniProt Q9BE39). Nature of the assay: Skinned bovine cardiac myofibril ATPase assay (PK/LDH-coupled). In kind it is biochemical. The note with it: Ca2+ activating to 75% of maximal rate; for CDMF75 IC15: concentration giving 15% inhibition; for IC50: read-out: CDMF75 IC50. The gist of the method: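 Inhibition of steady-state ATPase read at 340 nm through a PK/LDH-coupled NADH system (0.5 mM NADH, 1.5 mM PEP). Detergent-skinned bovine cardiac myofibrils, 1 mg/mL, were tested at pH 6.8 in PIPES/MgCl2 with 50 μM ATP and calcium adjusted to give pCa50 or pCa75 activation.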

This note sets out measurements from US12065436B2, “Cardiac sarcomere inhibitors” (Cytokinetics, Inc., priority 2018, dated 2024).

Sequence of bovine cardiac myofibrils (full-length cardiac myosin ATPase in the native sarcomere) (Q9BE39 whole entry): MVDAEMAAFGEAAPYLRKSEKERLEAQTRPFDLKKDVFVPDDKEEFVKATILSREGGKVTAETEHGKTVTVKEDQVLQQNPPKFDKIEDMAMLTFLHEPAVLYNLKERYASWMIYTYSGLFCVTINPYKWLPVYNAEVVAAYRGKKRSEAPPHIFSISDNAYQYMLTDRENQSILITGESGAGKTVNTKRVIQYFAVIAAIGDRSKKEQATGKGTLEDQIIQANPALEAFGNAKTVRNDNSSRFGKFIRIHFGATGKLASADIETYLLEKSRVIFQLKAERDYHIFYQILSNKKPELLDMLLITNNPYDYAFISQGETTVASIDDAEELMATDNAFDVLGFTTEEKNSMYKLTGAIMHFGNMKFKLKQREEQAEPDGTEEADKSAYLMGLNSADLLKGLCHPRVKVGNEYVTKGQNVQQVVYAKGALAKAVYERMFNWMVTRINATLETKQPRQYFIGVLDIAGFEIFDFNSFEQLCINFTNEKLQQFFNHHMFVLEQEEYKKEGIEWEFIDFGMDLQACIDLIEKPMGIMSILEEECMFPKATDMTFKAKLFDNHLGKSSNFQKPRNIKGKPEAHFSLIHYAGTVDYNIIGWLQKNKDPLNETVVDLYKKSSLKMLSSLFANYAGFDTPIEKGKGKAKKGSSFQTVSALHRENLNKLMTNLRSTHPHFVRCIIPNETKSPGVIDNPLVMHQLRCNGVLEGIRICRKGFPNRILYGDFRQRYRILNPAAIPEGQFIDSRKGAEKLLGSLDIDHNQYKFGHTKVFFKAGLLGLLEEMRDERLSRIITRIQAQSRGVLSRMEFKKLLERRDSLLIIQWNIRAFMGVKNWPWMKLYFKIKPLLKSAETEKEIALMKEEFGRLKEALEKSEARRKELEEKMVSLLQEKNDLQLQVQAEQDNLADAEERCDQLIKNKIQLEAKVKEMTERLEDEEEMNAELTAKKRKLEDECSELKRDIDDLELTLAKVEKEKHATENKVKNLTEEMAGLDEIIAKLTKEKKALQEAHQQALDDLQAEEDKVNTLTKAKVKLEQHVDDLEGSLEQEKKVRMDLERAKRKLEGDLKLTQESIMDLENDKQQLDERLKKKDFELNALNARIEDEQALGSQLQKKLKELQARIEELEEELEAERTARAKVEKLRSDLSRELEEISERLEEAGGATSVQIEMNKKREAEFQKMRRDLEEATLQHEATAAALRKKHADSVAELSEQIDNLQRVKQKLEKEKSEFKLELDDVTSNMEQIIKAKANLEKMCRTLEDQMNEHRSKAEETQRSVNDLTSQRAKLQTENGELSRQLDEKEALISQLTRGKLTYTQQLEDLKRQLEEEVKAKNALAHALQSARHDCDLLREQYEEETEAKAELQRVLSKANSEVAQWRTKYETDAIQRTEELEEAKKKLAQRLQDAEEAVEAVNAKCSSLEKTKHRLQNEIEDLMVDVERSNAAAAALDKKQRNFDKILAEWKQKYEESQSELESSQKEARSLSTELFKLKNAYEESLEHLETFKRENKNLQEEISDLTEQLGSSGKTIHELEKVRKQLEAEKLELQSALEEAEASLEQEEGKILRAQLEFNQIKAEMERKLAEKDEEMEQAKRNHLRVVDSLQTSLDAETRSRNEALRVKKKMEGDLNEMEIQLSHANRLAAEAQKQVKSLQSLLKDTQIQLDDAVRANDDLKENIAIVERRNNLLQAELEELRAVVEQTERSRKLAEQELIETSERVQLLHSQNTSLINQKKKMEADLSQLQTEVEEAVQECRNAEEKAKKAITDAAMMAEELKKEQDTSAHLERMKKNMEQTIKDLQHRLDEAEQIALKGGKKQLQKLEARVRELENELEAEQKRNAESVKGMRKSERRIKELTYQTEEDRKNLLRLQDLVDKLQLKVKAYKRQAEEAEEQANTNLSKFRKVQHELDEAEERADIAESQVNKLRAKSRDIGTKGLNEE
Sequence of bovine cardiac myofibrils (full-length cardiac myosin ATPase in the native sarcomere) (P85100 whole entry partner): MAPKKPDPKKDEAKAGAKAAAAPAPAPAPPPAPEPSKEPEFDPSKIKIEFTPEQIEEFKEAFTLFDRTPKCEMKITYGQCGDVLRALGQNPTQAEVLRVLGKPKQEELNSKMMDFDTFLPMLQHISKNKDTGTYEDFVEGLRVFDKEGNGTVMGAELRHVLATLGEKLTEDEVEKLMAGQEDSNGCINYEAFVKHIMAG
Sequence of bovine cardiac myofibrils (full-length cardiac myosin ATPase in the native sarcomere) (Q3SZE5 whole entry partner): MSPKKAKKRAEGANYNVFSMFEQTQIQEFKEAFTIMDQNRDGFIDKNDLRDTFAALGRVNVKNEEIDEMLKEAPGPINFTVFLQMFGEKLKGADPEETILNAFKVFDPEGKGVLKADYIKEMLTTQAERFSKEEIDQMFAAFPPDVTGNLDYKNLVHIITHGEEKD

Consider `CCc1nc(-c2ccc3c(c2)CC[C@H]3NC(=O)c2ncco2)no1` [Compound 593, (R)-N-(5-(5-ethyl-1,2,4-oxadiazol-3-yl)-2,3-dihydro-1H-inden-1-yl)oxazole-2-carboxamide], for which the “CDMF75 IC15” value came out at 500 nM and the 50% inhibitory concentration (IC50) is 2100 nM.
As to `CCc1noc(-c2ccc3c(c2)CC[C@H]3NC(=O)c2ccnn2C)n1` [Compound 257, (R)-N-(5-(3-ethyl-1,2,4-oxadiazol-5-yl)-2,3-dihydro-1H-inden-1-yl)-1-methyl-1H-pyrazole-5-carboxamide], the “CDMF75 IC15” value worked out at 400 nM and the IC50 was 1000 nM.
`Cc1ncc(C(=O)N[C@@H]2CCc3cc(-c4noc(C(C)C)n4)ccc32)o1` [Compound 391, (R)-N-(5-(5-isopropyl-1,2,4-oxadiazol-3-yl)-2,3-dihydro-1H-inden-1-yl)-2-methyloxazole-5-carboxamide]: the “CDMF75 IC15” value stood at 1300 nM and the IC50 amounted to 4600 nM.
Regarding `Cc1nn(C)cc1C(=O)NC1CCc2cc(-c3noc(C(F)F)n3)ccc21` (stereo not shown) [Compound 28, N-(5-(5-(difluoromethyl)-1,2,4-oxadiazol-3-yl)-2,3-dihydro-1H-inden-1-yl)-1,3-dimethyl-1H-pyrazole-4-carboxamide], the “CDMF75 IC15” value was found to be 800 nM and the half-inhibitory concentration (IC50) turned out to be 3400 nM.
On to `Cn1cc(C(=O)N[C@@H]2CCc3cc(-c4noc(C5CC5)n4)ccc32)cn1` [Compound 185, (R)-N-(5-(5-cyclopropyl-1,2,4-oxadiazol-3-yl)-2,3-dihydro-1H-inden-1-yl)-1-methyl-1H-pyrazole-4-carboxamide], for which the “CDMF75 IC15” value was 800 nM and the IC50 was found to be 2700 nM.
Taken in the same sequence, the figures for `CCc1nc(-c2ccc3c(c2)CC[C@H]3NC(=O)c2cn(CCCO)nc2C)no1` [Compound 612, (R)-N-(5-(5-ethyl-1,2,4-oxadiazol-3-yl)-2,3-dihydro-1H-inden-1-yl)-1-(3-hydroxypropyl)-3-methyl-1H-pyrazole-4-carboxamide] were 700 nM and 2100 nM.
Taken in the same sequence, the figures for `Cn1cc(C(=O)N[C@@H]2CCc3cc(-c4noc(C(F)F)n4)ccc32)ccc1=O` [Compound 644, (R)-N-(5-(5-(difluoromethyl)-1,2,4-oxadiazol-3-yl)-2,3-dihydro-1H-inden-1-yl)-1-methyl-6-oxo-1,6-dihydropyridine-3-carboxamide] were 1500 nM and 5900 nM.
In the case of `Cc1nc(C)c(C(=O)NC2COc3cc(-c4noc(C(F)F)n4)ccc32)o1` (stereo not shown) [Compound 192, N-(6-(5-(difluoromethyl)-1,2,4-oxadiazol-3-yl)-2,3-dihydrobenzofuran-3-yl)-2,4-dimethyloxazole-5-carboxamide], the “CDMF75 IC15” value is 1000 nM and the IC50 is 3800 nM.
As for `COCc1nc(-c2ccc3c(c2)CC[C@H]3NC(=O)c2cccc([C@@H](C)O)c2)no1` [Compound 729, 3-((R)-1-hydroxyethyl)-N-((R)-5-(5-(methoxymethyl)-1,2,4-oxadiazol-3-yl)-2,3-dihydro-1H-inden-1-yl)benzamide], the “CDMF75 IC15” value is 2600 nM and the IC50 worked out at 13200 nM.
Taken in the same sequence, the figures for `Cc1cc(C(=O)NC2CCc3cc(-c4cc(C)on4)ccc32)ccn1` (stereo not shown) [Compound 137, 2-methyl-N-(5-(5-methylisoxazol-3-yl)-2,3-dihydro-1H-inden-1-yl)isonicotinamide] were 1200 nM and 4900 nM.
Taken in the same sequence, the figures for `CC(CO)c1nc(-c2ccc3c(c2)CC[C@H]3NC(=O)c2ccnn2C)no1` (stereo partly drawn) [Compound 496, N-((1R)-5-(5-(1-hydroxypropan-2-yl)-1,2,4-oxadiazol-3-yl)-2,3-dihydro-1H-inden-1-yl)-1-methyl-1H-pyrazole-5-carboxamide] were 7100 nM and 34300 nM.
Consider `Cc1nc(-c2ccc3c(c2)OC[C@H]3NC(=O)c2cnc(C)o2)no1` [Compound 167, (S)-2-methyl-N-(6-(5-methyl-1,2,4-oxadiazol-3-yl)-2,3-dihydrobenzofuran-3-yl)oxazole-5-carboxamide], for which the “CDMF75 IC15” value was 1000 nM and the 50% inhibitory concentration (IC50) is 3800 nM.
Taken in the same sequence, the figures for `O=C(N[C@@H]1CCc2cc(-c3noc(C(F)F)n3)ccc21)c1cc(CO)ccn1` [Compound 667, (R)-N-(5-(5-(difluoromethyl)-1,2,4-oxadiazol-3-yl)-2,3-dihydro-1H-inden-1-yl)-4-(hydroxymethyl)picolinamide] were 900 nM and 3700 nM.
Taken in the same sequence, the figures for `CCc1nc(-c2ccc3c(c2)OCC3NC(=O)c2cnn(C)c2)no1` (stereo not shown) [Compound 239, N-(6-(5-ethyl-1,2,4-oxadiazol-3-yl)-2,3-dihydrobenzofuran-3-yl)-1-methyl-1H-pyrazole-4-carboxamide] were 700 nM and 2100 nM.
Taken in the same sequence, the figures for `CCc1nc(-c2ccc3c(c2)CC[C@H]3NC(=O)c2cnccc2C)no1` [Compound 627, (R)-N-(5-(5-ethyl-1,2,4-oxadiazol-3-yl)-2,3-dihydro-1H-inden-1-yl)-4-methylnicotinamide] were 3500 nM and 15000 nM.
For `[2H]C([2H])([2H])c1nc(-c2ccc3c(c2)CC[C@H]3NC(=O)c2cc(C)nn2C)no1` [Compound 247, (R)-1,3-dimethyl-N-(5-(5-(methyl-d3)-1,2,4-oxadiazol-3-yl)-2,3-dihydro-1H-inden-1-yl)-1H-pyrazole-5-carboxamide], the “CDMF75 IC15” value was 800 nM and the IC50 stood at 2600 nM.
Taken in the same sequence, the figures for `CCc1nc(-c2ccc3c(c2)CC[C@H]3NC(=O)c2cnc(C)o2)no1` [Compound 385, (R)-N-(5-(5-ethyl-1,2,4-oxadiazol-3-yl)-2,3-dihydro-1H-inden-1-yl)-2-methyloxazole-5-carboxamide] were 500 nM and 1700 nM.
For the molecule `O=C(NC1CCc2cc(-c3noc(C(F)F)n3)ccc21)c1cnc(Cl)s1` (stereo not shown) [Compound 8, 2-chloro-N-(5-(5-(difluoromethyl)-1,2,4-oxadiazol-3-yl)-2,3-dihydro-1H-inden-1-yl)thiazole-5-carboxamide], the “CDMF75 IC15” value is 400 nM and the IC50 stood at 1400 nM.
Taken in the same sequence, the figures for `O=C(NC1CC1)N[C@@H]1CCc2cc(-c3noc(C(F)F)n3)ccc21` [Compound 289, (R)-1-cyclopropyl-3-(5-(5-(difluoromethyl)-1,2,4-oxadiazol-3-yl)-2,3-dihydro-1H-inden-1-yl)urea] were 39200 nM and above 39200 nM.
Taken in the same sequence, the figures for `Cc1cc(C(=O)N[C@@H]2CCc3cc(-c4nc(C(F)F)no4)ccc32)ccn1` [Compound 133, (R)-N-(5-(3-(difluoromethyl)-1,2,4-oxadiazol-5-yl)-2,3-dihydro-1H-inden-1-yl)-2-methylisonicotinamide] were 1500 nM and 5700 nM.
Taken in the same sequence, the figures for `C[C@@H](O)Cn1cc(C(=O)N[C@@H]2CCc3cc(-c4noc(C5CC5)n4)ccc32)cn1` [Compound 576, N-((R)-5-(5-cyclopropyl-1,2,4-oxadiazol-3-yl)-2,3-dihydro-1H-inden-1-yl)-1-((R)-2-hydroxypropyl)-1H-pyrazole-4-carboxamide] were 3500 nM and 15200 nM.
In the case of `CCc1nc(-c2ccc3c(c2)CC[C@H]3NC(=O)c2nonc2C)no1` [Compound 633, (R)-N-(5-(5-ethyl-1,2,4-oxadiazol-3-yl)-2,3-dihydro-1H-inden-1-yl)-4-methyl-1,2,5-oxadiazole-3-carboxamide], the “CDMF75 IC15” value came to 200 nM and the concentration for half-maximal inhibition (IC50) was 800 nM.
As to `Cc1nc(-c2ccc3c(c2)CC[C@H]3NC(=O)c2cn(C)nc2C)no1` [Compound 111, (R)-1,3-dimethyl-N-(5-(5-methyl-1,2,4-oxadiazol-3-yl)-2,3-dihydro-1H-inden-1-yl)-1H-pyrazole-4-carboxamide], the “CDMF75 IC15” value was determined as 1100 nM and the IC50 stood at 3700 nM.
Regarding `Cc1nc(-c2ccc3c(c2)CCC3NC(=O)Nc2cccnn2)no1` (stereo not shown) [Compound 97, 1-(5-(5-methyl-1,2,4-oxadiazol-3-yl)-2,3-dihydro-1H-inden-1-yl)-3-(pyridazin-3-yl)urea], the “CDMF75 IC15” value amounted to 2000 nM and the IC50 was found to be 7800 nM.
Taken in the same sequence, the figures for `COC(=O)c1nc(-c2ccc3c(c2)CCC3NC(=O)c2cn(C)nc2C)no1` (stereo not shown) [Compound 78, methyl 3-(1-(1,3-dimethyl-1H-pyrazole-4-carboxamido)-2,3-dihydro-1H-inden-5-yl)-1,2,4-oxadiazole-5-carboxylate] were 2600 nM and 13600 nM.
In the case of `CCc1nc(-c2ccc3c(c2)CC[C@H]3NC(=O)c2ccc(=O)[nH]c2)no1` [Compound 604, (R)-N-(5-(5-ethyl-1,2,4-oxadiazol-3-yl)-2,3-dihydro-1H-inden-1-yl)-6-oxo-1,6-dihydropyridine-3-carboxamide], the “CDMF75 IC15” value was 300 nM and the IC50 worked out at 900 nM.
For the molecule `CCc1nc(-c2ccc3c(c2)CC[C@H]3NC(=O)C2CCCC(=O)N2)no1` (stereo partly drawn) [Compound 354, N-((R)-5-(5-ethyl-1,2,4-oxadiazol-3-yl)-2,3-dihydro-1H-inden-1-yl)-6-oxopiperidine-2-carboxamide], the “CDMF75 IC15” value was found to be 34100 nM and the half-maximal inhibitory concentration (IC50) is above 39200 nM.
As for `COCc1nc(-c2ccc3c(c2)CC[C@H]3NC(=O)c2cccc(C(C)O)c2)no1` (stereo partly drawn) [Compound 722, 3-(1-hydroxyethyl)-N-((R)-5-(5-(methoxymethyl)-1,2,4-oxadiazol-3-yl)-2,3-dihydro-1H-inden-1-yl)benzamide], the “CDMF75 IC15” value was found to be 1400 nM and the half-inhibitory concentration (IC50) came out at 5600 nM.
Taken in the same sequence, the figures for `CCc1nc(-c2ccc3c(c2)CC[C@H]3NC(=O)c2ccncn2)no1` [Compound 630, (R)-N-(5-(5-ethyl-1,2,4-oxadiazol-3-yl)-2,3-dihydro-1H-inden-1-yl)pyrimidine-4-carboxamide] were 500 nM and 1800 nM.

For orientation: IC50 means the point on the concentration scale where inhibition reaches its midpoint.
